Data on 29 molecules can be found in ChEMBL document CHEMBL5380848, “Novel Benzo Five-Membered Heterocycle Derivatives as P-Glycoprotein Inhibitors: Design, Synthesis, Molecular Docking, and Anti-Multidrug Resistance Activity” (J Med Chem, 2023).

The target of the data set is ATP-dependent translocase ABCB1 (Homo sapiens, UniProt P08183). As to the kind of experiment: Inhibition of P-gp-mediated multidrug resistance in doxorubicin-resistant human MCF7/ADR cells assessed as fold reversal of resistance by measuring doxorubicin IC50 incubated for 48 hrs by CCK-8 assay relative to doxorubicin IC50 in absence of compound. Also: test concentration or dose not given here. The note with it: nci-adr-res. The class given is cell-based. A general note: Formazan colour is commonly taken as a measure of viable cells.
Sequence of ATP-dependent translocase ABCB1 (P08183 whole entry): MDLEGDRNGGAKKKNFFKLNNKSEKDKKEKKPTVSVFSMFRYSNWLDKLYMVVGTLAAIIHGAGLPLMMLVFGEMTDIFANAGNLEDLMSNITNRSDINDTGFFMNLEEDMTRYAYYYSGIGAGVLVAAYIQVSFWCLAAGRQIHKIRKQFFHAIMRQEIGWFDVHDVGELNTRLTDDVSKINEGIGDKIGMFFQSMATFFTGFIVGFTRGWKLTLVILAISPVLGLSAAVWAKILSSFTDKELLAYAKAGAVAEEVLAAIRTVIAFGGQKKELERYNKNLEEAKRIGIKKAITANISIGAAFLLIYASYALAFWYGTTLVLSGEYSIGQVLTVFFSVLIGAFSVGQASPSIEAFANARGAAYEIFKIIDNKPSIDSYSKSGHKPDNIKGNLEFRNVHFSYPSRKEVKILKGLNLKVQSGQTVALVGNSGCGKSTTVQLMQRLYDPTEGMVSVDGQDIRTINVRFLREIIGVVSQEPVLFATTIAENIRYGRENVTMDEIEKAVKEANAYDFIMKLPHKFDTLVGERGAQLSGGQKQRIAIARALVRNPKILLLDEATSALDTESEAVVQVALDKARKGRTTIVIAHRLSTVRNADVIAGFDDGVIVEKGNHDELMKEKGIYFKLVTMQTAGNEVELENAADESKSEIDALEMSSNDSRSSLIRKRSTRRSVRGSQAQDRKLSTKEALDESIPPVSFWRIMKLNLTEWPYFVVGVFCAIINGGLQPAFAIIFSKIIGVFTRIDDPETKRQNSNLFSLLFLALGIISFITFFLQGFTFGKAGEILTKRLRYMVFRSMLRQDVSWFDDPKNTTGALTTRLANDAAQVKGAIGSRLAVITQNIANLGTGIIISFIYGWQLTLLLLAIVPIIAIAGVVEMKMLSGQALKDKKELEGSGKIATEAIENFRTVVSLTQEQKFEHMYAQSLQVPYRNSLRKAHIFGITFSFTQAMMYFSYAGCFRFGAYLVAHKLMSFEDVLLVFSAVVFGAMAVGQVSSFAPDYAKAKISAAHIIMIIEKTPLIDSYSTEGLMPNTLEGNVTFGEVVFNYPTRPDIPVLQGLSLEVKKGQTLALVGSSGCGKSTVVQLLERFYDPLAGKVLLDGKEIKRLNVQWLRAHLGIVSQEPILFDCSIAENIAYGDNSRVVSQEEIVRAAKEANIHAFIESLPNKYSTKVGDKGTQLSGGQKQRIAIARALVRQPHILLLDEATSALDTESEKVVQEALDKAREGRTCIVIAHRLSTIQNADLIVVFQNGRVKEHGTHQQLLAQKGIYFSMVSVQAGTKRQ
For `COc1cccc2c1C(=O)c1c(O)c3c(c(O)c1C2=O)C[C@@](O)(C(=O)CO)C[C@@H]3O[C@H]1C[C@H](N)[C@H](O)[C@H](C)O1` [DOXORUBICIN], the “fold change (FC)” value came out at 1.

Regarding `COc1cc2c(cc1OC)CN(C(=O)c1cc3cc(-c4ccccc4OC)ccc3[nH]1)CC2`, the “fold change (FC)” value is listed as 15.1.

Regarding `COc1cc2c(cc1OC)CN(C(=O)c1cc3cc(-c4cccc(F)c4)ccc3[nH]1)CC2`, the “fold change (FC)” value came out at 19.9.

Regarding `COc1cc2c(cc1OC)CN(C(=O)c1cc3cc(-c4ccccc4)ccc3[nH]1)CC2`, the “fold change (FC)” value was 10.

`COc1cc2c(cc1OC)CN(C(=O)c1cc3cc(-c4ccccc4F)ccc3[nH]1)CC2`: the “fold change (FC)” value is on record as 17.

As for `COc1cc2c(cc1OC)CN(C(=O)c1cc3cc(-c4cccc(Cl)c4)ccc3[nH]1)CC2`, the “fold change (FC)” value worked out at 33.4.

Turning to `COc1cc2c(cc1OC)CN(C(=O)c1cc3cc(-c4ccccc4Cl)ccc3[nH]1)CC2`, the “fold change (FC)” value came out at 52.8.

As for `COc1cc2c(cc1OC)CN(C(=O)c1cc3cc(-c4ccc(Oc5ccccc5)cc4)ccc3[nH]1)CC2`, the “fold change (FC)” value came out at 30.

As to `COc1cc2c(cc1OC)CN(C(=O)c1cc3cc(-c4ccc(OC(C)(C)C)cc4)ccc3[nH]1)CC2`, the “fold change (FC)” value worked out at 27.5.

As to `COc1cc2c(cc1OC)CN(C(=O)c1cc3cc(-c4ccc([N+](=O)[O-])cc4)ccc3[nH]1)CC2`, the “fold change (FC)” value came out at 55.8.

For `COc1cc2c(cc1OC)CN(C(=O)c1cc3cc(-c4cccc(OC)c4OC)ccc3[nH]1)CC2`, the “fold change (FC)” value is given as 88.3.

In the case of `COc1cc2c(cc1OC)CN(C(=O)c1cc3cc(-c4ccc(C)cc4)ccc3[nH]1)CC2`, the “fold change (FC)” value is reported as 41.4.

Regarding `CCCOc1ccc(-c2ccc3[nH]c(C(=O)N4CCc5cc(OC)c(OC)cc5C4)cc3c2)cc1`, the “fold change (FC)” value was determined as 16.5.

For `COc1cc2c(cc1OC)CN(C(=O)c1cc3cc(-c4ccc(OC(F)(F)F)cc4)ccc3[nH]1)CC2`, the “fold change (FC)” value is 99.1.

As to `COc1cc2c(cc1OC)CN(C(=O)c1cc3cc(-c4ccc5c(c4)OCO5)ccc3[nH]1)CC2`, the “fold change (FC)” value came to 33.4.

`COc1cc2c(cc1OC)CN(C(=O)c1cc3cc(-c4ccc(N)cc4)ccc3[nH]1)CC2`: the “fold change (FC)” value was 34.9.

Take `COc1cc2c(cc1OC)CN(C(=O)c1cc3cc(-c4ccccc4[N+](=O)[O-])ccc3[nH]1)CC2`: the “fold change (FC)” value was determined as 41.9.

Take `COc1cc2c(cc1OC)CN(C(=O)c1cc3cc(-c4ccccc4C)ccc3[nH]1)CC2`: the “fold change (FC)” value worked out at 26.3.

For the molecule `CCCCOc1ccc(-c2ccc3[nH]c(C(=O)N4CCc5cc(OC)c(OC)cc5C4)cc3c2)cc1`, the “fold change (FC)” value was determined as 18.3.

For the molecule `COc1cc2c(cc1OC)CN(C(=O)c1cc3cc(-c4ccc(F)cc4)ccc3[nH]1)CC2`, the “fold change (FC)” value is 51.3.

Turning to `COc1ccc(OC)c(-c2ccc3[nH]c(C(=O)N4CCc5cc(OC)c(OC)cc5C4)cc3c2)c1`, the “fold change (FC)” value is on record as 108.7.

On to `COc1cc2c(cc1OC)CN(C(=O)c1cc3cc(-c4cccc([N+](=O)[O-])c4)ccc3[nH]1)CC2`, for which the “fold change (FC)” value came to 76.3.

For `COc1cc2c(cc1OC)CN(C(=O)c1cc3cc(-c4ccc(Cl)cc4)ccc3[nH]1)CC2`, the “fold change (FC)” value worked out at 100.4.

`COc1ccc(-c2ccc3[nH]c(C(=O)N4CCc5cc(OC)c(OC)cc5C4)cc3c2)cc1OC`: the “fold change (FC)” value is 56.2.

For `COc1cccc(-c2ccc3[nH]c(C(=O)N4CCc5cc(OC)c(OC)cc5C4)cc3c2)c1`, the “fold change (FC)” value is 204.4.

Consider `COc1cc2c(cc1OC)CN(C(=O)c1cc3cc(-c4ccc(OC(C)C)cc4)ccc3[nH]1)CC2`, for which the “fold change (FC)” value stood at 24.

For `CCOc1ccc(-c2ccc3[nH]c(C(=O)N4CCc5cc(OC)c(OC)cc5C4)cc3c2)cc1`, the “fold change (FC)” value turned out to be 33.6.

Take `COc1ccc(-c2ccc3[nH]c(C(=O)N4CCc5cc(OC)c(OC)cc5C4)cc3c2)cc1`: the “fold change (FC)” value is listed as 46.4.

Turning to `COc1cc2c(cc1OC)CN(C(=O)c1cc3cc(-c4cc(OC)c(OC)c(OC)c4)ccc3[nH]1)CC2`, the “fold change (FC)” value stood at 137.6.
